Reference: ChEMBL document CHEMBL4507268 (2021)

Legend:
Details in all cases: Compound concentration 1.0 uM
[1] = biological target: T1, Dual specificity mitogen-activated protein kinase kinase 3 (Homo sapiens) (UniProt P46734)
T1 sequence (whole entry): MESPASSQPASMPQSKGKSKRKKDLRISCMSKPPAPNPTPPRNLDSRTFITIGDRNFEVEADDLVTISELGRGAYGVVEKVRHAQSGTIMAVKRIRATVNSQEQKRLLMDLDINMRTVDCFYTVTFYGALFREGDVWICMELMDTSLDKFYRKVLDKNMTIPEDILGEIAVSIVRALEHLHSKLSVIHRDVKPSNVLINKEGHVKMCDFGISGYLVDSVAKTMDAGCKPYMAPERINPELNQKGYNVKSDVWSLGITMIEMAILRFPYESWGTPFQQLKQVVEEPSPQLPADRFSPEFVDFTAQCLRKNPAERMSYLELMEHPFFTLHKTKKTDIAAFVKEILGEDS

[2] = biological target: T2, Phosphatidylinositol 3-kinase C2 domain-containing subunit gamma (Homo sapiens) (UniProt O75747)
T2 sequence (whole entry): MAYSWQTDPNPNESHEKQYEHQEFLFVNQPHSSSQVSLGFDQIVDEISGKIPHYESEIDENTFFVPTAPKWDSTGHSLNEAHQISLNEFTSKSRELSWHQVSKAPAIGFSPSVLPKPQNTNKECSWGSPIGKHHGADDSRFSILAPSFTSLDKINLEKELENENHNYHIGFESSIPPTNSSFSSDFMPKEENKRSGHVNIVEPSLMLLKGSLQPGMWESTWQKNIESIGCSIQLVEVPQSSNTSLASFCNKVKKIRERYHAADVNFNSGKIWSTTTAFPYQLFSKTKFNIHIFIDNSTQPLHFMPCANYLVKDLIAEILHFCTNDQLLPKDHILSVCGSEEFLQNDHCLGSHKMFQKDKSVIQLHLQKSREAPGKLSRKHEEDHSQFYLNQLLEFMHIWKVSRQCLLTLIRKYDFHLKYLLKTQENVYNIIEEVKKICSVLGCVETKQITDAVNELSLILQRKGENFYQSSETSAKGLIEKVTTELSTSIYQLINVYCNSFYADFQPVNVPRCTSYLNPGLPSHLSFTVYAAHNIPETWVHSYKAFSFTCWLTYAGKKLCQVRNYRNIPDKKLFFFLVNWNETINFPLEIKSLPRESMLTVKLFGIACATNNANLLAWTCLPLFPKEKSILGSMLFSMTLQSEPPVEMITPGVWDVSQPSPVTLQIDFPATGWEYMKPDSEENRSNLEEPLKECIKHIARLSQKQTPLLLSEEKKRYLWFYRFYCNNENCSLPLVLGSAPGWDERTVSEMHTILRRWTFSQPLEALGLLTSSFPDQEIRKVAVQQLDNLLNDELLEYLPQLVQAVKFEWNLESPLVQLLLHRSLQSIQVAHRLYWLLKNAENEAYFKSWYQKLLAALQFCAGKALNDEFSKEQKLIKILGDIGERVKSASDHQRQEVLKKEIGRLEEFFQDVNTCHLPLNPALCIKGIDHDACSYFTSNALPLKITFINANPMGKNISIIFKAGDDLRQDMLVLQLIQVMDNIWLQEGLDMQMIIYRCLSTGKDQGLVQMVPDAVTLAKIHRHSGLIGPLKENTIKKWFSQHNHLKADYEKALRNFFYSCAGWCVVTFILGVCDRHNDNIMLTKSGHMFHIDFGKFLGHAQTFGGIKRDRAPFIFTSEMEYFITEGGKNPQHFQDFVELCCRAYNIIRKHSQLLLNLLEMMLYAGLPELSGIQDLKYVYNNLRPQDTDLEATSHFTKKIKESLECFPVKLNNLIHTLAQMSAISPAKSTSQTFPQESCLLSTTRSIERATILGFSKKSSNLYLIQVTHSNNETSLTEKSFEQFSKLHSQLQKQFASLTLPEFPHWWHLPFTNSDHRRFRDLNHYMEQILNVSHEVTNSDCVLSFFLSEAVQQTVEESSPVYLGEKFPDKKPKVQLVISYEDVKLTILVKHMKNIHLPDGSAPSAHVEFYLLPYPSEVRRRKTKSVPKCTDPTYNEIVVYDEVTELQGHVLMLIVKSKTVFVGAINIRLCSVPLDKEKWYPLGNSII

[3] = biological target: T3, cAMP-dependent protein kinase catalytic subunit PRKX (Homo sapiens) (UniProt P51817)
T3 sequence (whole entry): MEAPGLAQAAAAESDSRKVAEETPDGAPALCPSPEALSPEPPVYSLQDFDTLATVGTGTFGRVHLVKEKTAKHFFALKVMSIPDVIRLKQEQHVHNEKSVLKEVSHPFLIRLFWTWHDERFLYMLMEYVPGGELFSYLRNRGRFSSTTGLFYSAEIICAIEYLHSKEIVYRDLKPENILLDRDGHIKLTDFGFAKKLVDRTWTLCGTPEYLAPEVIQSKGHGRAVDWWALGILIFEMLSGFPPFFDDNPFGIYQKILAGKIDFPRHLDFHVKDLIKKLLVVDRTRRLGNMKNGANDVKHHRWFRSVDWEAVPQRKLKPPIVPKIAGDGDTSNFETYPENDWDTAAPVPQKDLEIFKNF

[4] = biological target: Eukaryotic translation initiation factor 2-alpha kinase 3 (Homo sapiens) (UniProt Q9NZJ5)
Eukaryotic translation initiation factor 2-alpha kinase 3 (Homo sapiens), sequence (Q9NZJ5 whole entry): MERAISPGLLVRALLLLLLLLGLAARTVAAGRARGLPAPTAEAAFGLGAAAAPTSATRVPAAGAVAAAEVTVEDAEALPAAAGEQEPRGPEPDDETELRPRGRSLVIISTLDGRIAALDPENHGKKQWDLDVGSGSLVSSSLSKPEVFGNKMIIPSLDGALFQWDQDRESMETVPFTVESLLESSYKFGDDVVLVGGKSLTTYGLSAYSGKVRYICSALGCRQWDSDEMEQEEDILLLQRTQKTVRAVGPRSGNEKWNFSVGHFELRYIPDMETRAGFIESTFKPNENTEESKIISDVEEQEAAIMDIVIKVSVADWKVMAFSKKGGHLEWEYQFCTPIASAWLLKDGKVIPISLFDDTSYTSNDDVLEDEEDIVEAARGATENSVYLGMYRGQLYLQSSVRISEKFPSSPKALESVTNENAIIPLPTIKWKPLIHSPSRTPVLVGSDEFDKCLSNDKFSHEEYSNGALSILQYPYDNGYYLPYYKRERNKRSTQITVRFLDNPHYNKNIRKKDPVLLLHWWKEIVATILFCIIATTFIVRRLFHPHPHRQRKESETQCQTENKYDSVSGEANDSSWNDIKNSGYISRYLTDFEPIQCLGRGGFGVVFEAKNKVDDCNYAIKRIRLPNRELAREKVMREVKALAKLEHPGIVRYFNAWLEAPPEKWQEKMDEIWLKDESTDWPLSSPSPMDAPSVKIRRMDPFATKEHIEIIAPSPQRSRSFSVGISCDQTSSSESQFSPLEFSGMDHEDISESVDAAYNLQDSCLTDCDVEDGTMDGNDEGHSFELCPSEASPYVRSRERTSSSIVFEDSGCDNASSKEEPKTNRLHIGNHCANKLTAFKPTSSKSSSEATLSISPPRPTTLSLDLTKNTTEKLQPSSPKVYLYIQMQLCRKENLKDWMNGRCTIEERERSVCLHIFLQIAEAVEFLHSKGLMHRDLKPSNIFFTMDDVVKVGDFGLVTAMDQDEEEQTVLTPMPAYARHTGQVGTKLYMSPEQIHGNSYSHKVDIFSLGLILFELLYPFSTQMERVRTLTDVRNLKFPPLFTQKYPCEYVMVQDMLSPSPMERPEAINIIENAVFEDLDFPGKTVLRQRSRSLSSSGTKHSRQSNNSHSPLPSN

[5] = biological target: Serine/threonine-protein kinase MARK2 (Homo sapiens) (UniProt Q7KZI7)
Serine/threonine-protein kinase MARK2 (Homo sapiens), sequence (Q7KZI7 whole entry): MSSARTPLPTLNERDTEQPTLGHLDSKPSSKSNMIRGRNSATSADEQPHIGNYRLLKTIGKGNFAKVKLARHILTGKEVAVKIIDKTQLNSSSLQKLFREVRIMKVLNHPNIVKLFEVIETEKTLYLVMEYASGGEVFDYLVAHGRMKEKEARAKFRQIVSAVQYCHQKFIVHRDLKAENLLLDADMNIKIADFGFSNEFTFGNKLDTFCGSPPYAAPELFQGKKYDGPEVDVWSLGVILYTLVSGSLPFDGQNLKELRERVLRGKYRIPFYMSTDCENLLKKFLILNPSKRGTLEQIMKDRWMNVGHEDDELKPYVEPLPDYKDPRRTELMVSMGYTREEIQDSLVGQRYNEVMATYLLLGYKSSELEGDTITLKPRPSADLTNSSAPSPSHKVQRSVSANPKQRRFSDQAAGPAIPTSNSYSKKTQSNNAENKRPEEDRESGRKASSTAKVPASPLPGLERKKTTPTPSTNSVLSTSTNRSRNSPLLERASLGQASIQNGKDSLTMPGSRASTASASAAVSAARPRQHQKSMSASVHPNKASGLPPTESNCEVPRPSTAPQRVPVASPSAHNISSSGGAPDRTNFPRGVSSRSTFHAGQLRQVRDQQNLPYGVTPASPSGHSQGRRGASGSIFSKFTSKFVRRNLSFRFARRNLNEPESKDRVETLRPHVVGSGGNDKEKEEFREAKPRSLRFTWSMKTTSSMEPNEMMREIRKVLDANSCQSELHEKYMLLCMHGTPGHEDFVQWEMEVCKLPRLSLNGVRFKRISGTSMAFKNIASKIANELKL

[6] = biological target: Receptor tyrosine-protein kinase erbB-4 (Homo sapiens) (UniProt Q15303)
Receptor tyrosine-protein kinase erbB-4 (Homo sapiens), sequence (Q15303 whole entry): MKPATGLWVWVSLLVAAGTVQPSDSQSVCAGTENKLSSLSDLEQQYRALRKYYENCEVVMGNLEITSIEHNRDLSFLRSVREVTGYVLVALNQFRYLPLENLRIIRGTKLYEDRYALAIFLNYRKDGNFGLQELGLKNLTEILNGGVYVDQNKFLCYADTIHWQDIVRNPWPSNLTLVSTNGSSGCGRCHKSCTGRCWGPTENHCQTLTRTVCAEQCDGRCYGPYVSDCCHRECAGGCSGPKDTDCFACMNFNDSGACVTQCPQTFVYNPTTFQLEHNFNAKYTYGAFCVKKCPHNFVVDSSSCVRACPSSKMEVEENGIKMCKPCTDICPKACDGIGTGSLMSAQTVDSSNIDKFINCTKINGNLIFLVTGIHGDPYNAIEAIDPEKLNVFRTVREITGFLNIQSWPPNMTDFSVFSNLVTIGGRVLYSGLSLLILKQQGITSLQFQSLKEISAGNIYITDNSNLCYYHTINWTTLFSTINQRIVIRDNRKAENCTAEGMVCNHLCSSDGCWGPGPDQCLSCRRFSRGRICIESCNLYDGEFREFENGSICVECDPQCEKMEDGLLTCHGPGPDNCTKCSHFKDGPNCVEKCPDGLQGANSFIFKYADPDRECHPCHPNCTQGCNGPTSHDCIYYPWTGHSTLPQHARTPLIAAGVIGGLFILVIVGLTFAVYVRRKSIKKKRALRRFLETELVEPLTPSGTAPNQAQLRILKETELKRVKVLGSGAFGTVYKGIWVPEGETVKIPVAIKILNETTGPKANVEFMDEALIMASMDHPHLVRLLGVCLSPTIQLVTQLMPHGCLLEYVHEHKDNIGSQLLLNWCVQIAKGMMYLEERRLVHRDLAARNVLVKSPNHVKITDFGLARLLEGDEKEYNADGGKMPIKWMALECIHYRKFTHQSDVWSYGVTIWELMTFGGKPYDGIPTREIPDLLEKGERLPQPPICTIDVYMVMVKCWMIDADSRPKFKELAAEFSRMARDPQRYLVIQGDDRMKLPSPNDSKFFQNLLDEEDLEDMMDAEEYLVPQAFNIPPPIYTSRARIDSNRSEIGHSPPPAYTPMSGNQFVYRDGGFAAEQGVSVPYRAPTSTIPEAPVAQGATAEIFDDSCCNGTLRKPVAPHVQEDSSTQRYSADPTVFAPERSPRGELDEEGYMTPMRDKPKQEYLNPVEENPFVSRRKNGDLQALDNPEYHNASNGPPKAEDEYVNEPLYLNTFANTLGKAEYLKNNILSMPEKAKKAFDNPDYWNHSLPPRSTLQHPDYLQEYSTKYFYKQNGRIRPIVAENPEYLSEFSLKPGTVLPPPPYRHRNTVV

Measured: % residual kinase activity

CN1CCN(c2cnc3c(C4CCN(C(=O)c5ccc(OC(F)(F)F)cc5N)CC4)ncnc3c2)CC1 [BAY-885]
inactive: [1] 92% | [2] 94% | [3] 121% | [4] 100% | [5] 113% | [6] 98%
